This is an account of results in paper PMC9653339, “Revisiting the anticancer properties of phosphane(9-ribosylpurine-6-thiolato)gold(I) complexes and their 9H-purine precursors” (Journal of Biological Inorganic Chemistry, 2022).

Like-named read-outs stand apart in the source and are kept apart here.

The subject of test [1] is HCT-116^wt colon carcinoma cells. Kind of test: MTT cell viability assay, HCT-116wt. The format is cell-based, human. The following applies: 72 h. As to the method: (§1) Cells were seeded in 96-well microtiter plates (Sarstedt) with a cell density of 0.05 × 10^6 cells per ml and 100 µL per well and incubated for 24 h. A dilution series of test compounds was added to the wells, ranging in twelve steps from 100 µM to 5 nM. As a control, equal amounts of DMSO were added. Treated cells were further incubated for 72 h. Then, 12.5 µL per well of MTT solution (0.05% in phosphate-buffered saline (PBS)) was added, followed by another 2 h of incubation. The plates were centrifuged, the medium was discarded and 25 µL per well of SDS solution in DMSO (10% SDS, 0.6% AcOH in DMSO) was added to dissolve the formazan. The plates were incubated for a further hour. Absorbances at 570 nm and 630 nm were measured using a plate reader (Tecan). Background absorbance (630 nm) was subtracted from the formazan signal (570 nm). The resulting absorbance was directly proportional to the amount of viable cells. The control was normalized to 100% viable cells and viability of cells treated with test compounds was calculated accordingly. IC50 values were calculated based on a sigmoidal fit model using GraphPad Prism. Means and SD were calculated from at least four independent experiments.

In test [2] the test system is HCT-116^p53−/− (p53 knockout mutant) colon carcinoma cells. The test is described as follows: MTT cell viability assay, HCT-116 p53-/-. The format is cell-based, human. The following applies: 72 h. As to the method: as §1
Test [3] relates to MCF-7 mamma carcinoma cells. The test is described as follows: MTT cell viability assay, MCF-7. The format is cell-based, human. The protocol: as §1, with “All complexes stable in solution were investigated for their anti-proliferative effect on nine human cancer cell lines, using the MTT-based cell viability assay. Cells” for “Cells”
For test [4], the system named is mdr MCF-7^Topo mamma carcinoma cells. The test is described as follows: MTT cell viability assay, MCF-7Topo. The format is cell-based, human. The following applies: 72 h. The protocol:
as §1, with “All complexes stable in solution were investigated for their anti-proliferative effect on nine human cancer cell lines, using the MTT-based cell viability assay. Cells” for “Cells”

In test [5] the test system is 518A2 melanoma cells. The test is described as follows: Influence on the cell cycle (PI flow cytometry). The format is cell-based, human. The following applies: 518A2 cells, 24 h, IC50 concentrations (5: approximately twice its IC50). The protocol: The complexes were investigated for their effect on the cell cycle. Cells were seeded in 6-well plates (Sarstedt) with 3 mL per well and a cell density of 0.05 × 10^6 cells per mL and incubated for 24 h. […] The supernatant of each sample was transferred into a separate tube on ice, the cell monolayer was rinsed once with PBS and the cells were harvested using trypsin, and also transferred into the tube. The cells were pelleted (4 °C, 150 × g, 5 min), re-suspended in 1 mL ice cold EtOH (70%) and stored for at least 1 h at 4 °C. Prior to propidium iodide (PI) staining, the cells were centrifuged (150×g, 5 min), the supernatant was discarded and the cells were layered with 1 mL PBS for 5 min. The cells were centrifuged again and the pellet was re-suspended in 200 µL of PI staining solution (50 µg/mL PI, 1% sodium citrate in PBS) containing 1 µL RNase (10 mg/mL stock solution) and incubated in dark for 30 min at 37 °C. The cell cycle distribution was assessed by flow cytometry (Beckmann Coulter). Means and SD were calculated from at least three independent experiments.

In another test the test system is tubulin. The test is described as follows: Tubulin polymerisation assay. The format is biochemical. The note with it: in vitro, turbidity at 340 nm. The protocol:
First, 2 × polymerization buffer was prepared, which consisted of 385 µL Brinkley renaturing buffer 80 (BRB 80), 100 µL glycerol, and 15 µL GTP (100 mM). 50 µL of freshly prepared 2 × polymerization buffer was added to µClear black well plates. Subsequently, 11.1 µL each of a tenfold substance pre-dilution in BRB80 was added. In addition, a combretastatin A-4 positive control was prepared analogously. After rapid addition of 50 µL of tubulin per well, the measurement was started on the plate reader at 340 nm. The plate reader measured at 20 s intervals for at least 120 min until the measurement plateau was reached. For evaluation, OD 340 nm was plotted versus time.

For another test, the system named is EA.hy926 cells. The test is described as follows: Tube formation assay. The format is cell-based, human. The following applies: 5 µM (CA-4 0.01 µM). The protocol:
EA.hy926 cells were cultured overnight in endothelial medium (37 °C, 95% humidity, 5% CO2) instead of DMEM. In addition, Matrigel was thawed on ice in the refrigerator. Pipette tips and 96-well plates were stored at − 20 °C overnight. The next day, 30 µL of Matrigel was added to each well bubble-free and the well plate was incubated for approximately 45 min (37 °C, 95% humidity, 5% CO2). Subsequently, 100 µL of cell suspension was added to each well at a concentration of 0.4–0.5 × 10^6 cells/mL onto the Matrigel-treated wells and the substances were added in tenfold pre-dilution. This was followed by incubation for approximately 6 h, until tubes formed in the negative control with DMSO. At this point, documentation under the microscope took place.

In test [6] the test system is human adult dermal fibroblasts HDFa. Also on record: method as in Bär et al. [33]. The note with it: MTT, value marked * ref Bär et al. [33]; cited from earlier work.
Test [7] has as its system 518A2 melanoma cells. Kind of test: Inhibition of wound healing (scratch migration assay). The format is cell-based, human. The note with it: 518A2 cells, IC50 concentrations, 0-24 h. The protocol: Cells of melanoma cell line 518A2 were seeded in a volume of 500 µL and at a concentration of 0.1 × 10^6 cells/mL in 24-well plates in triplicate. The plate was incubated (37 °C, 95% humidity, 5% CO2) for two days until a confluent monolayer was formed. A 10 µL pipette tip was used to create a wound in the cell lawn, the wound was rinsed with PBS and the medium was changed to a FBS-reduced one. Pictures were taken at first time point (0 h) right before the addition of substance at 100-fold pre-dilution. The plate was then incubated again in the incubator and photos were taken at several more time points (6, 12, and 24 h) [262626].

Setting [8] is: Homo sapiens, Colon carcinoma cell.

As for `Sc1ncnc2nc[nH]c12` [6-MP, 6-Mercaptopurine, reference compound], the IC50 stood at 5300 ± 280 nM in test [1] (setting [8]); 580 ± 50 nM in [2] (setting [8]); 3700 ± 260 nM in test [3] (Homo sapiens, MCF7, 72 h); 6400 ± 460 nM in [4] (Homo sapiens, MCF7/Topo). For the same compound, the “Effect on the cell cycle” value in the test on 518A2 melanoma cells [5] is recorded as “accumulated in G1-phase”. Further, the “Inhibition of tubulin polymerization” value in the test on tubulin is on record as “inhibited tubulin polymerization”.

Take `Nc1nc2nc[nH]c2c(=S)[nH]1` [6-TG, 6-thioguanine, reference compound]: the IC50 in [3] (Homo sapiens, MCF7, 72 h) turned out to be 980 ± 80 nM; in test [4] (Homo sapiens, MCF7/Topo) it was 900 ± 90 nM. Further, the “Effect on the cell cycle” value in the test on 518A2 melanoma cells [5] is given as “accumulated in G1-phase”. Further, the “Inhibition of tubulin polymerization” value in the test on tubulin is “inhibited tubulin polymerization”. Also, the “Inhibition of tube formation” value in the test on EA.hy926 cells is given as “stronger such effect when compared to 6-MP”.

`CC(=O)OC[C@H]1O[C@@H]([S-])[C@H](OC(C)=O)[C@@H](OC(C)=O)[C@@H]1OC(C)=O.CCP(CC)CC.[Au+]` [Auranofin, auranofin]: the IC50 in test [3] (72 h, read-out: IC50 MCF7) is 2200 ± 220 nM; in [4] (read-out: IC50 MCF7^Topo) it was 4700 ± 430 nM; in [6] it was 14000 ± 1000 nM. Moreover, in the test with 518A2 melanoma cells [5], the “Effect on the cell cycle” value is reported as “arrested mainly in S-phase”. In the test with tubulin, the “Inhibition of tubulin polymerization” value is “microtubule-destabilizing agent”. Besides, the “Inhibition of tube formation” value in the test with EA.hy926 cells is reported as “inhibitory effects”.

For the compound `OC[C@H]1O[C@@H](n2cnc3c([S][Au][PH](c4ccccc4)(c4ccccc4)c4ccccc4)ncnc32)[C@H](O)[C@@H]1O` [Complex 5, (1,7-Dihydro-6H-purine-9-β-D-ribofuranosyl-6-thiolato) (triphenylphosphane) gold(I)], the IC50 in test [1] came out at 1700 ± 200 nM; in [2], 300 ± 70 nM; in test [3] (72 h, read-out: IC50 MCF7) it was 2400 ± 220 nM; in test [4] (read-out: IC50 MCF7^Topo), 1700 ± 140 nM. In the test with 518A2 melanoma cells [5], the “Effect on the cell cycle” value was “both a G1-phase arrest and an S-phase arrest”. Also, the “Inhibition of tubulin polymerization” value with tubulin was “merely slight inhibition of tubulin polymerization”. In addition, the “Effect on cell migration (scratch closure)” value in the test with 518A2 melanoma cells [7] was “retarded the closure of the scratch”. The “Inhibition of tube formation” value in the test on EA.hy926 cells is listed as “inhibitory effect, comparable in strength to that of 6-TG”.

On to `Nc1nc([S][Au][PH](c2ccccc2)(c2ccccc2)c2ccccc2)c2ncn([C@@H]3O[C@H](CO)[C@@H](O)[C@H]3O)c2n1` [Complex 6, (2-Amino-1,7-dihydro-6H-purine-9-β-D-ribofuranosyl-6-thiolato) (triphenylphosphane) gold(I)], for which the IC50 in test [1] amounted to 5500 ± 200 nM; in test [2], 1400 ± 300 nM; in [3] (72 h, read-out: IC50 MCF7), 5800 ± 570 nM; in test [4] (read-out: IC50 MCF7^Topo), 3200 ± 290 nM. In addition, the “Inhibition of tubulin polymerization” value in the test on tubulin is “merely slight inhibition of tubulin polymerization”. Besides, the “Effect on cell migration (scratch closure)” value with 518A2 melanoma cells [7] was “even accelerated it”.
